What was measured:
HS-PSS [1] = test: relative IC50 (inflection point of fitted dose-response curve, CellTox-Green cytotoxicity, 72 h; top asymptote may be below 50%); higher = less potent
Procedure, shortened: (§1)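 MPNST cell lines and primary human Schwann cells were grown for 72 h at 37 °C in 384-well plates containing five 10-fold compound dilutions. CellTox-Green, added before seeding at a final 1:1000 dilution, gave fluorescence from DNA released by disrupted cells, and signals were scaled to vehicle and positive-control wells. Curves were fitted with a four-parameter logistic model. Drug sensitivity score and relative IC50 come from these fits, with IC50 censored at the top concentration.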

STS26T [2] = test: as above
Procedure, shortened: as §1

ST8814 [3] = test: as above
Procedure, shortened: as §1

HSC2 [4] = test: as above
Procedure, shortened: as §1

HSC1 [5] = test: as above
Procedure, shortened: as §1

S1507-2 [6] = test: as above
Procedure, shortened: as §1

HS-PSS [7] = test: relative IC50 (inflection point of fitted dose-response curve, CellTiter-Glo viability, 72 h; top asymptote may be below 50% inhibition); higher = less potent
Procedure, shortened: (§2)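 For this screen, 384-well plates were preprinted with each compound at five concentrations in 10-fold steps and seeded with MPNST cell lines or primary human Schwann cells at 750–1000 cells per well. Incubation lasted 72 h at 37 °C, 5% CO2, and CellTiter-Glo ATP luminescence, scaled between vehicle and positive-control wells and averaged over duplicates where available, served as viability. Logistic fits with four parameters were applied. Relative IC50 (censored at the top concentration) and drug sensitivity score derive from these fits, and percent inhibition is at the top concentration.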

STS26T [8] = test: as above
Procedure, shortened: as §2

YST-1 = test: as above
Procedure, shortened: as §2

S462 = test: as above
Procedure, shortened: as §2

ST8814 [9] = test: as above
Procedure, shortened: as §2

HSC2 [10] = test: as above
Procedure, shortened: as §2

HS-Sch-2 = test: as above
Procedure, shortened: as §2

HSC1 [11] = test: as above
Procedure, shortened: as §2

S1507-2 [12] = test: as above
Procedure, shortened: as §2

| Compound | relative IC50 (HS-PSS [1]) [nM] | relative IC50 (STS26T [2]) [nM] | relative IC50 (ST8814 [3]) [nM] | relative IC50 (HSC2 [4]) [nM] | relative IC50 (HSC1 [5]) [nM] | relative IC50 (S1507-2 [6]) [nM] | relative IC50 (HS-PSS [7]) [nM] | relative IC50 (STS26T [8]) [nM] | relative IC50 (YST-1) [nM] | relative IC50 (S462) [nM] | relative IC50 (ST8814 [9]) [nM] | relative IC50 (HSC2 [10]) [nM] | relative IC50 (HS-Sch-2) [nM] | relative IC50 (HSC1 [11]) [nM] | relative IC50 (S1507-2 [12]) [nM] |
| --- | --- | --- | --- | --- | --- | --- | --- | --- | --- | --- | --- | --- | --- | --- | --- |
| O=[N+]([O-])c1ccc2c(c1)S(=O)(=O)C=C2 [Stattic] | 2870 | 2270 | 4720 | 7900 | 2450 | 15900 | 1390 | 2990 | 1740 | 4990 | 2410 | 3040 | 1420 | 1880 | 9570 |
| Nc1ccn([C@@H]2O[C@H](CO)[C@@H](O)C2(F)F)c(=O)n1 [Gemcitabine] | 50.4 | 1.22 | 3.86 | 5.47 | 8.57 | 2.65 | 19.9 | 1.59 | 8.34 | 0.481 | 4.13 | 2 | 2.09 | 2.2 | 0.876 |
| NS(=O)(=O)OC[C@@H]1C[C@@H](n2ccc3c(N[C@H]4CCc5ccccc54)ncnc32)C[C@@H]1O [Pevonedistat] | 222 | 137 | 201 | 1220 | 737 | 291 | 89.6 | 520 | 128 | 95.2 | 187 | 380 | 46.8 | 513 | 208 |
| CCCCCCCCc1ccc(CCC(N)(CO)CO)cc1 [Fingolimod] | 3160 | 3340 | 3430 | 2220 | 1950 | 1600 | 1890 | 2620 | 2940 | 3070 | 2770 | 2340 | 2480 | 2150 | 2030 |
| CC(C)(C#N)c1cc(Cn2cncn2)cc(C(C)(C)C#N)c1 [Anastrozole] | > 10000 | > 10000 | > 10000 | > 10000 | > 10000 | > 10000 | > 10000 | > 10000 | > 10000 | > 10000 | > 10000 | > 10000 | > 10000 | > 10000 | > 10000 |
| COc1cc(Nc2c(C#N)cnc3cc(OCCCN4CCN(C)CC4)c(OC)cc23)c(Cl)cc1Cl [Bosutinib] | 3310 | 2950 | 2410 | 3250 | 3330 | 3200 | 3430 | 1270 | 2590 | 1490 | 1460 | 1140 | 1600 | 1700 | 1410 |
| CC(C)(C)c1cnc(CSc2cnc(NC(=O)C3CCNCC3)s2)o1 [SNS-032] | 2450 | 15.9 | 27.2 | 6.74 | 11.9 | > 10000 | 26.7 | 21 | 38.3 | 10.4 | 46.6 | 3.76 | 48.5 | 5.57 | 141 |
| Nc1cc(C(F)(F)F)c(-c2cc(N3CCOCC3)nc(N3CCOCC3)n2)cn1 [Buparlisib] | > 10000 | 1610 | 2660 | 2210 | 2710 | 2960 | 1750 | 1530 | 844 | 1790 | 1690 | 2020 | 1610 | 1990 | 1370 |
| CCN(CC)CCOc1ccc(/C(=C(/Cl)c2ccccc2)c2ccccc2)cc1 [Clomifene] | 2990 | 2840 | 2560 | 2030 | > 10000 | 3540 | 2290 | 2520 | 3930 | 2450 | 2540 | 2440 | 3360 | 1140 | 2470 |
| CCCCC(=O)OCC(=O)[C@]1(O)Cc2c(O)c3c(c(O)c2[C@@H](O[C@H]2C[C@H](NC(=O)C(F)(F)F)[C@H](O)[C@H](C)O2)C1)C(=O)c1c(OC)cccc1C3=O [Valrubicin] | > 5000 | > 5000 | > 5000 | > 5000 | > 5000 | > 5000 | 422 | 306 | 97 | 233 | 285 | 258 | 264 | 238 | 534 |
| CCOc1cc2ncc(C#N)c(Nc3ccc(OCc4ccccn4)c(Cl)c3)c2cc1NC(=O)/C=C/CN(C)C [Neratinib] | > 1000 | > 1000 | > 1000 | > 1000 | > 1000 | > 1000 | 160 | 178 | 327 | 203 | 146 | 211 | 184 | 251 | 187 |
| COc1ccc(S(=O)(=O)Nc2cccnc2Nc2ccc(O)cc2)cc1 [ABT-751] | > 10000 | 246 | 536 | 304 | 831 | 355 | 3010 | 367 | 814 | 351 | 353 | 476 | 437 | 468 | 325 |
| COc1ccccc1S(=O)(=O)Nc1ccc2c(c1)CN(C)C(=O)N2 [PFI-1] | > 10000 | > 10000 | 2080 | > 10000 | > 10000 | 3630 | 3730 | 1470 | 1720 | 1710 | 1530 | 2120 | 1670 | 2820 | 1670 |
| Nc1nc(Cl)nc2c1ncn2[C@@H]1O[C@H](CO)[C@@H](O)[C@@H]1F [Clofarabine] | 311 | 585 | 814 | 337 | 323 | 1940 | 387 | 301 | 331 | 374 | 744 | 207 | 161 | 289 | 817 |
| O=C(/C=C/c1cccc(S(=O)(=O)Nc2ccccc2)c1)NO [Belinostat] | 1490 | 415 | 800 | 1700 | 1770 | 1190 | 924 | 718 | 259 | 762 | 321 | 704 | 610 | 459 | 364 |
| CNC(=O)c1cc(Oc2ccc(NC(=O)Nc3cc(C(C)(C)C)nn3-c3ccc4ncccc4c3)c(F)c2)ccn1 [Rebastinib] | > 1000 | > 1000 | > 1000 | > 1000 | > 1000 | > 1000 | > 1000 | > 1000 | > 1000 | > 1000 | > 1000 | > 1000 | > 1000 | > 1000 | > 1000 |
| C=CC(=O)Nc1cc2c(Nc3ccc(F)c(Cl)c3)ncnc2cc1OCCCN1CCOCC1 [Canertinib] | 2420 | 2700 | 2970 | 2000 | 2160 | 2410 | 2440 | 2220 | 3180 | 2780 | 1870 | 2030 | 2530 | 1610 | 1560 |
| CC[C@@H]1C(=O)N(C)c2cnc(Nc3ccc(C(=O)N[C@H]4CC[C@H](N5CCN(CC6CC6)CC5)CC4)cc3OC)nc2N1C(C)C [Volasertib] | > 1000 | 2.68 | 34.1 | 25.2 | 29.3 | 12.7 | 42.1 | 7.29 | 17.7 | 15.4 | 33.6 | 33.2 | 10.6 | 34.5 | 16.1 |
| O=C1NC(=O)[C@@H](c2cn3c4c(cccc24)CCC3)[C@@H]1c1c[nH]c2ccccc12 [Tivantinib] | – | 210 | 328 | 243 | 240 | 253 | 239 | 239 | 190 | 340 | 330 | 251 | 231 | 276 | 254 |
| CC[C@]1(O)C[C@@H]2CN(CCc3c([nH]c4ccccc34)[C@@](C(=O)OC)(c3cc4c(cc3OC)N(C)[C@H]3[C@@](O)(C(=O)OC)[C@H](OC(C)=O)[C@]5(CC)C=CCN6CC[C@]43[C@@H]65)C2)C1 [Vinblastine] | – | 2.01 | 2.83 | 13.7 | 31.9 | 4.53 | 10.9 | 2.86 | 3.76 | 3.13 | 2.98 | 5.82 | 2.21 | 6.83 | 5.3 |
| CC(=O)O[C@@]12CO[C@@H]1C[C@H](O)[C@@]1(C)C(=O)[C@H](O)C3=C(C)[C@@H](OC(=O)[C@H](O)[C@@H](NC(=O)OC(C)(C)C)c4ccccc4)C[C@@](O)([C@@H](OC(=O)c4ccccc4)[C@H]21)C3(C)C [Docetaxel] | – | 1.15 | 4.62 | 8.43 | 6.11 | 6.13 | 3.86 | 1.07 | 1.02 | 0.759 | 3.95 | 4.15 | 2.11 | 3.08 | 8.6 |
| CC[C@@H]1C(=O)N(C)c2cnc(Nc3ccc(C(=O)NC4CCN(C)CC4)cc3OC)nc2N1C1CCCC1 [BI 2536] | – | 2.27 | 4.57 | 21.5 | 22.3 | 10.6 | 7.64 | 3.49 | 3.54 | 4.92 | 9.3 | 22.6 | 3.28 | 27.1 | 11.9 |
| CC[C@]1(O)C[C@H]2CN(CCc3c([nH]c4ccccc34)[C@@](C(=O)OC)(c3cc4c(cc3OC)N(C=O)[C@H]3[C@@](O)(C(=O)OC)[C@H](OC(C)=O)[C@]5(CC)C=CCN6CC[C@]43[C@@H]65)C2)C1 [Vincristine] | – | 1.13 | 6.85 | 44.7 | 62.2 | 8.92 | 9.51 | 1.76 | 2.18 | 3.42 | 6.95 | 11 | 2.19 | 10.3 | 6.45 |

Reference: the supplement of paper PMC5579334
